{"source": "patent US11015223B2", "about": "“Methods for determining response to a hypomethylating agent” (THE REGENTS OF THE UNIVERSITY OF CALIFORNIA, priority 2013, dated 2021)", "test_system": "MDS patients", "assay": "Response to treatment by IWG response criteria revised in 2006 (CR/PR/HI = responders)", "type": "in vivo, human", "excerpt": "A total of 213 MDS patients treated azacitidine or decitabine were included in this study. Samples were obtained from patients treated at the Dana-Farber Cancer Institute (n=42), the MD Anderson Cancer Center (n=104), and as part of the DACO-020 (ADOPT) clinical trial of decitabine (n=67). All samples were collected with patient consent under IRB-approved protocols in accordance with the Declaration of Helsinki. There were no significant differences in baseline patient characteristics by treatment site (Table 1).\nResponse to treatment was assessed using IWG response criteria revised in 2006. Patients with either a complete response (CR), partial response (PR), or hematologic improvement (HI) were considered as ‘responders’ (R, n=100, 47%). whereas patients described as having ‘no response’, ‘stable disease’, ‘progressive disease’, ‘death’ before response assessment, or ‘not evaluable’ were considered ‘non-responders’ (NR, […], 53%).\nCategorical variables were compared using a Fisher exact test, while continuous variables were compared using a Wilcoxon rank-sum test. A Cochran-Mantel-Haenszel (CMH) test was used to test for differences in response rate by mutational status controlling for treatment. Unadjusted and adjusted logistic regression models were used to predict response to therapy. A stepwise algorithm for logistic regression was also utilized to determine a final model; candidate variables considered for inclusion were all mutations, treatment, IPSS classification, age, and sex. The Hosmer and Lemeshow goodness-of-fit test was used to assess model fit for logistic regression models. Overall survival was calculated from the time of treatment to the time of death from any cause or was censored at the date last known alive. Unadjusted and adjusted Cox regression models were constructed for overall survival. A stepwise regression algorithm for Cox regression models was used including the same candidate variables as in the logistic regression modeling. Classification trees were also created using the Rpart package in R version 2.11.1 to classify responders based on mutational status. Cross-validation was used for tree pruning. All p-values reported are two-sided and considered significant at the 0.05 level. No adjustments were made for multiple hypothesis testing.", "data": [{"smiles": "Nc1ncn([C@H]2C[C@H](O)[C@@H](CO)O2)c(=O)n1", "note": "[decitabine, 5-aza-2′-deoxycytidine]", "values": [{"measurement": "Non-Responders (NR/SD/PD/Died/NE) (%)", "setting": "all patients on the treatment", "result": "(53) %"}, {"measurement": "Non-Responders (NR/SD/PD/Died/NE) N", "setting": "all patients on the treatment", "result": 76, "unit": "N"}, {"measurement": "Responders (CR/PR/HI) N", "setting": "all patients on the treatment", "result": 68, "unit": "N"}, {"measurement": "Responders (CR/PR/HI) (%)", "setting": "all patients on the treatment, listed as Dec Alone", "result": 47, "unit": "%"}, {"measurement": "Responders (CR/PR/HI) (%)", "setting": "all patients on the treatment, listed as Decitabine Alone", "result": "(47) %"}, {"measurement": "Response (%)", "setting": "patients with ASXL1 mutation", "result": 42, "unit": "%"}, {"measurement": "Response N", "setting": "patients with ASXL1 mutation", "result": 29, "unit": "N"}, {"measurement": "Response (%)", "setting": "patients with ATRX mutation", "result": 25, "unit": "%"}, {"measurement": "Response N", "setting": "patients with ATRX mutation", "result": 2, "unit": "N"}, {"measurement": "Response (%)", "setting": "patients with BCOR mutation", "result": 56, "unit": "%"}, {"measurement": "Response N", "setting": "patients with BCOR mutation", "result": 9, "unit": "N"}, {"measurement": "Response (%)", "setting": "patients with CBL mutation", "result": 11, "unit": "%"}, {"measurement": "Response N", "setting": "patients with CBL mutation", "result": 1, "unit": "N"}, {"measurement": "Response (%)", "setting": "patients with DNMT3A mutation", "result": 36, "unit": "%"}, {"measurement": "Response N", "setting": "patients with DNMT3A mutation", "result": 8, "unit": "N"}, {"measurement": "Response (%)", "setting": "patients with ETV6 mutation", "result": 50, "unit": "%"}, {"measurement": "Response N", "setting": "patients with ETV6 mutation", "result": 3, "unit": "N"}, {"measurement": "Response (%)", "setting": "patients with EZH2 mutation", "result": 44, "unit": "%"}, {"measurement": "Response N", "setting": "patients with EZH2 mutation", "result": 7, "unit": "N"}, {"measurement": "Response (%)", "setting": "patients with IDH1 mutation", "result": 25, "unit": "%"}, {"measurement": "Response N", "setting": "patients with IDH1 mutation", "result": 2, "unit": "N"}, {"measurement": "Response (%)", "setting": "patients with IDH2 mutation", "result": 17, "unit": "%"}, {"measurement": "Response N", "setting": "patients with IDH2 mutation", "result": 2, "unit": "N"}, {"measurement": "Response (%)", "setting": "patients with JAK2 mutation", "result": 40, "unit": "%"}, {"measurement": "Response N", "setting": "patients with JAK2 mutation", "result": 2, "unit": "N"}, {"measurement": "Response (%)", "setting": "patients with KDM3A mutation", "result": 25, "unit": "%"}, {"measurement": "Response N", "setting": "patients with KDM3A mutation", "result": 2, "unit": "N"}, {"measurement": "Response (%)", "setting": "patients with KDM6B mutation", "result": 25, "unit": "%"}, {"measurement": "Response N", "setting": "patients with KDM6B mutation", "result": 2, "unit": "N"}, {"measurement": "Response (%)", "setting": "patients with KRAS mutation", "result": 20, "unit": "%"}, {"measurement": "Response N", "setting": "patients with KRAS mutation", "result": 1, "unit": "N"}, {"measurement": "Response (%)", "setting": "patients with MAML1 mutation", "result": 54, "unit": "%"}, {"measurement": "Response N", "setting": "patients with MAML1 mutation", "result": 7, "unit": "N"}, {"measurement": "Response (%)", "setting": "patients with NF1 mutation", "result": 31, "unit": "%"}, {"measurement": "Response N", "setting": "patients with NF1 mutation", "result": 4, "unit": "N"}, {"measurement": "Response (%)", "setting": "patients with NOTCH1 mutation", "result": 38, "unit": "%"}, {"measurement": "Response N", "setting": "patients with NOTCH1 mutation", "result": 5, "unit": "N"}, {"measurement": "Response (%)", "setting": "patients with NOTCH2 mutation", "result": 58, "unit": "%"}, {"measurement": "Response N", "setting": "patients with NOTCH2 mutation", "result": 11, "unit": "N"}, {"measurement": "Response (%)", "setting": "patients with NPM1 mutation", "result": 71, "unit": "%"}, {"measurement": "Response N", "setting": "patients with NPM1 mutation", "result": 5, "unit": "N"}, {"measurement": "Response (%)", "setting": "patients with NRAS mutation", "result": 73, "unit": "%"}, {"measurement": "Response N", "setting": "patients with NRAS mutation", "result": 11, "unit": "N"}, {"measurement": "Response (%)", "setting": "patients with PHF6 mutation", "result": 50, "unit": "%"}, {"measurement": "Response N", "setting": "patients with PHF6 mutation", "result": 5, "unit": "N"}, {"measurement": "Response (%)", "setting": "patients with PRPF8 mutation", "result": 33, "unit": "%"}, {"measurement": "Response N", "setting": "patients with PRPF8 mutation", "result": 3, "unit": "N"}, {"measurement": "Response (%)", "setting": "patients with PTPN11 mutation", "result": 17, "unit": "%"}, {"measurement": "Response N", "setting": "patients with PTPN11 mutation", "result": 1, "unit": "N"}, {"measurement": "Response (%)", "setting": "patients with RUNX1 mutation", "result": 53, "unit": "%"}, {"measurement": "Response N", "setting": "patients with RUNX1 mutation", "result": 16, "unit": "N"}, {"measurement": "Response (%)", "setting": "patients with SCAF11 mutation", "result": 25, "unit": "%"}, {"measurement": "Response N", "setting": "patients with SCAF11 mutation", "result": 2, "unit": "N"}, {"measurement": "Response (%)", "setting": "patients with SF3B1 mutation", "result": 36, "unit": "%"}, {"measurement": "Response N", "setting": "patients with SF3B1 mutation", "result": 8, "unit": "N"}, {"measurement": "Response (%)", "setting": "patients with SRSF2 mutation", "result": 56, "unit": "%"}, {"measurement": "Response N", "setting": "patients with SRSF2 mutation", "result": 14, "unit": "N"}, {"measurement": "Response (%)", "setting": "patients with TET2 mutation", "result": 54, "unit": "%"}, {"measurement": "Response N", "setting": "patients with TET2 mutation", "result": 22, "unit": "N"}, {"measurement": "Response (%)", "setting": "patients with TLR1 mutation", "result": 71, "unit": "%"}, {"measurement": "Response N", "setting": "patients with TLR1 mutation", "result": 5, "unit": "N"}, {"measurement": "Response (%)", "setting": "patients with TP53 mutation", "result": 47, "unit": "%"}, {"measurement": "Response N", "setting": "patients with TP53 mutation", "result": 9, "unit": "N"}, {"measurement": "Response (%)", "setting": "patients with U2AF1 mutation", "result": 50, "unit": "%"}, {"measurement": "Response N", "setting": "patients with U2AF1 mutation", "result": 9, "unit": "N"}, {"measurement": "Response (%)", "setting": "patients with ZRSR2 mutation", "result": 44, "unit": "%"}, {"measurement": "Response N", "setting": "patients with ZRSR2 mutation", "result": 4, "unit": "N"}]}]}
